Experimental data reported in patent EP4215193A1, “METHOD FOR THE CONSERVATIVE TREATMENT OF ENDOMETRIAL POLYPS” (Kiselev, Vsevolod Ivanovich, priority 2020, dated 2022).

Experiments:
[1] = test system: pathological neoangiogenesis; conditions: subcutaneously, 5 mg / kg, daily; cited from earlier work
[2] = Clinical comparison of efficacy of DIM + βCD complex and crystalline DIM taken orally; format: in vivo; conditions: equal dosages, all studied groups of patients
Text: Clinical studies have compared the efficacy of the water-soluble DIM + βCD complex and crystalline 3,3'-diindolylmethane in equal dosages when taken orally. […]

Compound | inhibition of pathological neoangiogenesis [1] | clinical response [2]
c1ccc2c(Cc3c[nH]c4ccccc34)c[nH]c2c1 [DIM, 3,3'-diindolylmethane] | 74% | –
3,3'-diindolylmethane [Crystal DIM] | – | absence of such
